Data as given in patent publication US20250144085A1, “PHARMACEUTICAL COMPOSITION FOR PREVENTING OR TREATING CANCER COMPRISING OMEPRAZOLE BROWNING MATTER” (NEW CANCER CURE BIO CO., LTD, priority 2021, published 2025).

Test system: pancreatic cancer (MIA PaCa2) cell line
Experiment: sulforhodamine B colorimetric assay (SRB assay) of cancer cell death
Assay type: cell-based
Conditions: 48 hours; for Cancer cell killing rate (%) by treatment with omeprazole (KN510) degradation substance: 0.1%; for Cancer cell growth rate following treatment with omeprazole (KN510) degradation substance, average(%): treated at a concentration of 0.1%
Method: In order to confirm the anticancer activity of the omeprazole (KN510) degradation substances (acid degradation substances) and base degradation substances prepared in Example 1 above, the cancer cell killing effect of each of the omeprazole (KN510) degradation substances was determined. The extent of cancer cell death was measured by sulforhodamine B colorimetric assay (SRB assay), which was performed as follows: A pancreatic cancer (MIA PaCa2) cell line (100 μ ? ) was inoculated into 96-well cell culture plates at a density ranging from 7,500 to 10,000 cells/well depending on the doubling time. Each of the omeprazole (KN510) degradation substances prepared in Example 1 above was treated at a concentration of 0.1% and incubated in a CO2 incubator for 48 hours, after which the assay was terminated by adding cold TCA. Cells were fixed intact by gently adding 50 μl of cold 50% (w/v) TCA (final concentration: 10% TCA) and incubated at 4° C. for 60 min. The supernatant was discarded, and the plate was washed five times with distilled water and then air dried. A solution (100 μl) of 0.4% (w/v) sulforhodamine B in 1% acetic acid was added to each well, and the plate was left at room temperature for 10 min. After staining, unbound dye was removed by washing five times with 1% acetic acid, and the plate was air-dried. The bound dye was then solubilized with 10 mM trizma base, and the absorbance was recorded at 515 nm using an automated plate reader. All experiments were performed in triplicate, and data were expressed as mean±standard deviation values.

## COc1ccc2[nH]c([S+]([O-])Cc3ncc(C)c(OC)c3C)nc2c1 (centres unmarked) [omeprazole (KN510), omeprazole]
Compared to the control group using the values in Table 1
  Cancer cell killing rate (%) by treatment with omeprazole (KN510) degradation substance: about 32%
Compared to the control group using the values in Table 1, listed as KN510 + 1M HCl 0 μl
  Cancer cell killing rate (%) by treatment with omeprazole (KN510) degradation substance: 31.85%
Compared to the control group using the values in Table 1, listed as KN510 + 1M NaOH 0 μl
  Cancer cell killing rate (%) by treatment with omeprazole (KN510) degradation substance: 32.82%
Control = 100.00, listed as KN510 + 1M HCl 0 μl
  Cancer cell growth rate following treatment with omeprazole (KN510) degradation substance, average(%): 68.15%
Control = 100.00, listed as KN510 + 1M NaOH 0 μl
  Cancer cell growth rate following treatment with omeprazole (KN510) degradation substance, average(%): 67.18%
